From patent publication US5989846A, “Assays to identify inducers of plant defense resistance” (Rutgers, The State University of New Jersey, priority 1995, dated 1999)

Key:
[1] = tested on: salicylic acid binding protein; assay: Effect of antioxidants on salicylic acid binding activity; set-up: species or system tobacco; conditions: 20 mM citrate, 5 mM MgCl, 10% glycerol pH 6.5, FIG. 5
Method: This was measured in buffers containing 20 mM citrate, 5 mM MgCl and 10% glycerol pH 6.5 in addition to the indicated concentrations of antioxidant.
A key element during the characterization and the purification process is a simple, inexpensive, sensitive and reliable method for determining the salicylic acid binding activity. For this purpose, spin-column exclusion chromatography was used to separate the bound [^14 C] salicylic acid (excluded) from the bulk free salicylic acid (included). Specifically, a 1.5 ml Eppendorf tube was punctured at the tip with a 20-gauge needle and a small amount of glass wool was added to cover the small hole. The tube was then filled with Bio-Gel P-6DG desalting gel (exclusion limit 6 KDa; purchased from Bio-Rad, Melville, N.Y.) which have been swollen in water. An alternative gel is Sephadex G-25 fine (from Pharmacia, Piscataway, N.J.). Excess liquid in the gel was removed and centrifuged for 5 minutes at full speed in a Dynamic centrifuge (Becton Dickinson). The process was then repeated several times until the gel filled the tube. After incubation of an aliquot of the extract or column fractions for 2 hr at 4° C. with 5 μM-20 μM [^14 C salicylic acid] (specifically radioactivity 55 Ci/mol; purchased from New England Nuclear), 150 μl of proteins binding sample was loaded onto the tube column, which was then rapidly centrifuged for 2 minutes at full speed and the solution of proteins and bound [^14 C-salicylic acid] that was excluded from the gel was collected into another tube that had been placed under the tube column during the centrifugation. One hundred microliters of this solution was then used to determine the amount of bound salicylic acid. […] For example, to determine the inhibitory effect of various salicylic acid analogues on salicylic acid binding activity, these individual analogues were included in the binding mixture containing both the protein and [^14 C] salicylic acid during the 2 hr incubation, and resulting binding activity was determined in comparison to the activity in the absence of these analogues. […]

[2] = tested on: PR1 genes; assay: PR-1 protein/gene expression in tobacco leaves (immunoblot); type: in vivo; conditions: tobacco leaves
Method: The level of PR1 protein in tobacco leaves was analyzed by immunoblot analysis to establish biological activity. Three leaf discs (1 cm in diameter) were homogenized in 200 microliters of buffer containing 50 mM Tris (pH 8.0), 1 mM EDTA, 12 mM beta-mercaptoethanol and 10 mg/ml phenylmethylsulfonyl fluoride. The homogenate was centrifuged at full speed for 10 minutes in an Eppendorf microcentrifuge. The supernatant was fractionated with 15% polyacrylamide gel under denatured conditions. Protein blotting was done with a monoclonal antibody specific to PR1 protein and protein-antibody complexes were detected with an ECL kit from Amersham.
PR gene expression is both induced by SA and associated with the development of SAR. Therefore, it was of interest to test whether SA's mechanism of action for the induction of PR genes was via its inhibition of catalases which leads to enhanced H2 O2 levels. To address this question, H2 O2 abundance was artificially raised in tobacco leaves by treating with H2 O2 or compounds which either inhibit the catalase activity, like SA itself, or promote generation of H2 O2 in vivo. […]

[3] = tested on: H2 O2; assay: Abundance of H2O2 in treated tobacco leaves; type: in vivo; conditions: FIG. 11
Source text: The abundance of H2 O2 increased in SA- or 3AT-treated tobacco leaves by 50-60% over the control levels observed in water-treated leaves. […] Thus, elevated levels of H2 O2, and in turn, enhanced oxidative stress in vivo, were consistent with inhibition of catalase activity by SA observed in vitro.

[4] = tested on: TMV; type: in vivo, tobacco mosaic virus; conditions: TMV infection six days after injection, lesions measured seven days post infection, treated vs untreated leaf half
Method: The SA/SAG valves are given in micrograms per gram fresh weight of leaf tissue and represent averages of values from 3-6 treated plants at 6 days past injection. […] For determination of reduction in lesion size, longitudinal halves of 2 leaves on 3-6 plants were injection with chemicals, and six days later the entire leaf was infected with TMV. Twenty lesions were measured on each half of the leaf seven days post infection; the values given represent the average percent reduction in lesion diameter in the treated leaf half compared to the untreated half.

[5] = molecular target: ascorbate peroxidase; assay: Ascorbate peroxidase activity in tobacco leaf extracts; type: biochemical, Nicotiana tabacum cv. Xanthi nc
Procedure, shortened: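 Soluble extracts from leaves of 6–8-week Nicotiana tabacum cv. Xanthi nc, desalted into 50 mM potassium phosphate pH 7 with 100 μM ascorbate, were assayed (30–50 μg protein) with or without 100 or 1000 μM SA or INA. Ascorbate oxidation followed as A290 decrease; means of three replicates.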

[6] = tested on: guaiacol peroxidases; assay: Guaiacol peroxidase activity in tobacco leaf extracts; type: biochemical, Nicotiana tabacum cv. Xanthi nc
Method: Inhibition of peroxidase by SA and INA was determined by measuring the enzyme activities in extracts prepared from tobacco leaves in the absence or presence of 100 μM or 1000 μM SA or INA. Two grams of leaves from 6-8 week old tobacco plants (Nicotiana tabacum cv. Xanthi nc) grown at 22° C. in a 14 hr light cycle were homogenized under liquid nitrogen using a pestle and mortar.
Total guaiacol peroxidase activity was extracted with 100 mM potassium phosphate, pH 6.2, containing 1% (weight/volume) polyvinylpyrrolidone. In order to also extract the ionically bound cell wall isozymes, the extraction buffer was supplemented with 600 mM KCl. Extraction and centrifugation steps were as described for ascorbate peroxidase. After removal of cell debris and ammonium sulfate precipitation (85%), the extract was desalted against 50 mM potassium phosphate, pH 6, containing 25% glycerol. The extract could be stored at -20° C. without significant loss of peroxidase activity.
(§1) Guaiacol peroxidase activity was determined by the method of Chance and Maehly (Methods Enzymol. 2: 764 (1955)) using guaiacol as the substrate.
(§2) The formation of tetraguaiacol was monitored at 470 nm. The reaction mixture contained 0.25% guaiacol and 100 mM hydrogen peroxide in 20 mM potassium phosphate, pH 6.2. The amount of protein per 1 ml assay was […]. The reaction was measured for five minutes. The assay for horseradish peroxidase was identical, except that only 0.2-0.5 μg protein was used.

[7] = molecular target: T1, horseradish peroxidase (Armoracia rusticana, UniProt P00433); assay: Horseradish peroxidase activity; type: biochemical
T1 construct: purchased Sigma
T1 sequence (P00433 31-353): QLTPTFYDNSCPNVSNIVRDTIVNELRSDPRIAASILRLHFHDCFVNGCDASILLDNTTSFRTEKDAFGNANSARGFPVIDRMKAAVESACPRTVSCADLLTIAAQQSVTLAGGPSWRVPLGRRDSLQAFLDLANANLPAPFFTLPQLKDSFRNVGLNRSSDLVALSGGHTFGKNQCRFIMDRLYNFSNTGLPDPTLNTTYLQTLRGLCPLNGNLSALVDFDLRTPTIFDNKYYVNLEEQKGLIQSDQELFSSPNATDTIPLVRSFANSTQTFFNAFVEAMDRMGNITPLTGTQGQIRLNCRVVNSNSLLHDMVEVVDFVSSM
Method: Horseradish peroxidase (1 mg; obtained from Sigma) was dissolved in 1.5 ml 200 mM potassium phosphate, pH 6.2, containing 150 mM NaCl. Following a 15 minute incubation at room temperature, the enzyme solution was centrifuged (10,000 g, 10 minutes). After buffer exchange (PD-10, equilibrated with 25 mM potassium phosphate, pH 6.2), the protein concentration was adjusted to 0.5 mg/ml.
as §1, §2

[8] = tested on: salicylic acid binding protein; assay: Competitive [14C] salicylic acid binding assay (spin-column); set-up: species or system tobacco; conditions: [14C] salicylic acid 20 μM
Method: The 180 kDa native binding protein isolated was tested for binding affinity and specificity. A competitive assay was established using salicylic acid binding protein fractionated from plants as previously described.
A key element during the characterization and the purification process is a simple, inexpensive, sensitive and reliable method for determining the salicylic acid binding activity. For this purpose, spin-column exclusion chromatography was used to separate the bound [^14 C] salicylic acid (excluded) from the bulk free salicylic acid (included). Specifically, a 1.5 ml Eppendorf tube was punctured at the tip with a 20-gauge needle and a small amount of glass wool was added to cover the small hole. The tube was then filled with Bio-Gel P-6DG desalting gel (exclusion limit 6 KDa; purchased from Bio-Rad, Melville, N.Y.) which have been swollen in water. An alternative gel is Sephadex G-25 fine (from Pharmacia, Piscataway, N.J.). Excess liquid in the gel was removed and centrifuged for 5 minutes at full speed in a Dynamic centrifuge (Becton Dickinson). The process was then repeated several times until the gel filled the tube. After incubation of an aliquot of the extract or column fractions for 2 hr at 4° C. with 5 μM-20 μM [^14 C salicylic acid] (specifically radioactivity 55 Ci/mol; purchased from New England Nuclear), 150 μl of proteins binding sample was loaded onto the tube column, which was then rapidly centrifuged for 2 minutes at full speed and the solution of proteins and bound [^14 C-salicylic acid] that was excluded from the gel was collected into another tube that had been placed under the tube column during the centrifugation. One hundred microliters of this solution was then used to determine the amount of bound salicylic acid. […] For example, to determine the inhibitory effect of various salicylic acid analogues on salicylic acid binding activity, these individual analogues were included in the binding mixture containing both the protein and [^14 C] salicylic acid during the 2 hr incubation, and resulting binding activity was determined in comparison to the activity in the absence of these analogues. Likewise, to determine the effect of pH and antioxidants on the binding activity the protein sample was either dialyzed against a large volume of buffers with different pH or antioxidants were added to the protein sample to various concentrations and the resulting binding activities were then determined with the spin-column method in comparison with the activity determined in the absence of these treatments.

[9] = molecular target: T2, catalase activity of SABP (Nicotiana tabacum, UniProt P49319); assay: Catalase activity of highly purified SABP (luminol method); type: biochemical, tobacco; conditions: 0.05 h; 1 mM SA or analogue, 1 mM H2O2, 500 ng highly purified SABP
T2 sequence (P49319 1-492): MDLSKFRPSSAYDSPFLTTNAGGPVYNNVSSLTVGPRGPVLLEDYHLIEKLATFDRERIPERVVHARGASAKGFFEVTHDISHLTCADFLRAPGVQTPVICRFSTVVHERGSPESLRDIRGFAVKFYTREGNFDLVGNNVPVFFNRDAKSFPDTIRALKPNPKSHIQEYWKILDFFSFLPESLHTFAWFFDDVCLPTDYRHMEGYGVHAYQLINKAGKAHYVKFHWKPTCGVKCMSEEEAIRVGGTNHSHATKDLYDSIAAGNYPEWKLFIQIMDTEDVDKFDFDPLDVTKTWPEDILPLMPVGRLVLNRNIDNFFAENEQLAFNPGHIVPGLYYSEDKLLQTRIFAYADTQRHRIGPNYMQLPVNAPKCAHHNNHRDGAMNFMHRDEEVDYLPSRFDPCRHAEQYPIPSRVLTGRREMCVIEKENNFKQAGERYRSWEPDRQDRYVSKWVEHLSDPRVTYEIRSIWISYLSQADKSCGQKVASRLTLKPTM
Method: Aliquots (50 μl) were removed from the assay mixture at 30 second intervals to assay for amount of H2 O2 remaining using the luminol method as has been described by Warm and Laties, Phytochem. […] The tube was placed in the measuring chamber and assay was initiated with automatic injection into the mixture of 100 μl of 0.5 mM K3 Fe(CN)6 in 0.2N NH4 OH, pH 9.5. Measurements were integrated over 5 second periods. H2 O2 was calculated from the standard curve constructed with known amounts of H2 O2. Rate constants of SABP catalase activity in the presence or absence of SA or its analogues were then calculated based on a first-order mechanism.

[10] = tested on: resistance or PR gene expression; set-up: key: ++: indicates a high level of biological activity; +: indicates a lower level of biological activity; ±: indicates low, but detectable biological activity in some assays; -: indicates no biological activity; conditions: Table 3; values reported in literature; cited from earlier work
[11] = tested on: SABP; set-up: concentration or dose not given beside the values; conditions: Table 6; previously published data (Chen et al. 1993); cited from earlier work

Q: Which “Effect on salicylic acid binding activity of SABP” value (from here on “Effect”) [1] does the source give for `O=C1O[C@H]([C@@H](O)CO)C(O)=C1O` [ascorbic acid] here?
A: little inhibitory effect

Q: For `Nc1nc[nH]n1` [3AT, 3-amino-1,2,4-triazole], which “Induction of PR1 gene expression” value [2] is on record?
A: induced the expression of PR-1 genes

Q: And the “Increase in abundance of H2O2 over water-treated leaves” value [3]?
A: 50-60%

Q: Which “Effect” value [1] does the source give for `O[C@H](CS)[C@H](O)CS` (racemic) [dithiothreitol] here?
A: affected

Q: Which “Effect” value [1] does the source give for `OCCS` [beta-mercaptoethanol] here?
A: affected

Q: Which “Reduction in lesion size (%)” value [4] does the source give for `O=C(O)c1cc(Cl)nc(Cl)c1` [INA, 2,6-dichloroisonicotinic acid] here?
A: 72%

Q: And the IC50 ([5]; 750 μM ascorbate, 25 to 500 μM compound, FIG. 17, read-out: Concentration necessary for 50% inhibition (I50) of ascorbate peroxidase)?
A: 95 µM

Q: And the Activity ([5]; APX, 100 μM compound)?
A: 2.25 ± 0.4 μmols of oxidized substrate mi

Q: And the Inhibition ([5]; APX, 100 μM compound)?
A: 54%

Q: And the Activity ([5]; APX, 1,000 μM compound)?
A: 0.24 ± 0.2 μmols of oxidized substrate mi

Q: And the Inhibition ([5]; APX, 1,000 μM compound)?
A: 95%

Q: And the Activity ([6]; POX, 100 μM compound)?
A: 2.8 ± 0.4 μmols of oxidized substrate mi

Q: And the Inhibition ([6]; POX, 100 μM compound)?
A: 0%

Q: What about the Activity ([6]; POX, 1,000 μM compound) of the same compound?
A: 2.7 ± 0.4 μmols of oxidized substrate mi

Q: What about the Inhibition ([6]; POX, 1,000 μM compound) of the same compound?
A: 3%

Q: And the Activity ([7]; HRP, 100 μM compound)?
A: 236 ± 8 μmols of oxidized substrate mi

Q: And the inhibition at 100 µM ([7]; HRP, 100 μM compound)?
A: 1%

Q: What about the Activity ([7]; HRP, 1,000 μM compound) of the same compound?
A: 242 ± 16 μmols of oxidized substrate mi

Q: And the inhibition at 1000 µM ([7]; HRP, 1,000 μM compound)?
A: 0%

Q: What does the source list for `O=C(O)c1cccc(O)c1` [3-Hydroxybenzoic acid]?
A: Inhibition (%) 2× ([8]; 40 μM (2×) unlabeled competitor): -2%; Inhibition (%) 10× ([8]; 200 μM (10×) unlabeled competitor): 0%; inhibition at 1000 µM [9]: 3.1%; Increase in abundance of H2O2 over water-treated leaves [3]: unable to enhance; % Inhibition of ascorbate peroxidase ([5]; 200 μM compound, corrected for quenching of auto oxidation): 28 ± 7%; Biological activity [10]: -; Inhibition (%) [14C]SA binding [11]: 1%
